Values after ≈ are worked out from the molar mass of the structure shown. Values belong to the compound of their own block, whether it stands above or below them.
What was measured:
Assay in all cases: ≥ marks a high value that may be exact or a test limit, other limits are often not marked, values filed in µg/mL are converted to µM
[1] = test system: Acinetobacter baumannii ATCC 17978
[2] = test system: Fusarium solani NRRL 28548
[3] = test system: Kluyveromyces lactis
[4] = test system: Mucor circinelloides NRRL 3631
[5] = test system: Candida dubliniensis
[6] = test system: Candida parapsilosis
[7] = test system: Candida tropicalis
[8] = test system: Cutibacterium acnes ATCC 6919
[9] = test system: Enterobacter cloacae
[10] = test system: Candida glabrata
[11] = test system: Candida albicans 17-88
[12] = test system: Debaryomyces hansenii
[13] = test system: Cutibacterium acnes
[14] = test system: Pseudomonas aeruginosa ATCC 27853
[15] = test system: Candida krusei NRRL Y-27803
[16] = test system: Staphylococcus aureus MR
[17] = test system: Pseudomonas aeruginosa ATCC 19660
[18] = test system: Staphylococcus aureus ATCC 33592
[19] = test system: Cutibacterium acnes ATCC 11827
[20] = test system: Klebsiella pneumoniae ATCC 10031
[21] = test system: Candida parapsilosis NRRL Y-1761
[22] = test system: Aspergillus fumigatus
[23] = test system: Aspergillus flavus ATCC MYA-3651
[24] = test system: Candida albicans NRRL Y-326
[25] = test system: Candida albicans
[26] = test system: Candida krusei
[27] = test system: Staphylococcus aureus
[28] = test system: Lichtheimia corymbifera NRRL 6251
[29] = test system: Staphylococcus epidermidis ATCC 51625
[30] = test system: Staphylococcus epidermidis ATCC 12228
[31] = test system: Escherichia coli CMCC 44102
[32] = test system: Staphylococcus aureus CMCC 26003
[33] = test system: Salmonella enterica subsp. enterica serovar Typhimurium C77-31
[34] = test system: Salmonella enterica subsp. enterica serovar Typhimurium ATCC 14028
[35] = test system: Salmonella enterica subsp. enterica serovar Pullorum C79-13
[36] = test system: Escherichia coli UB1005
[37] = test system: Staphylococcus aureus ATCC 29213
[38] = test system: Staphylococcus aureus ATCC 25923
[39] = test system: Salmonella enterica subsp. enterica serovar Typhi CMCC 50071
[40] = test system: Escherichia coli ATCC 8739
[41] = test system: Staphylococcus aureus HNCMO 112011
[42] = test system: Paenibacillus alvei LMG 6922
[43] = test system: Salmonella enterica subsp. enterica serovar Newport
[44] = test system: Serratia marcescens ATCC 17991
[45] = test system: Bacillus thuringiensis serovar tenebrionis DSM 2803
[46] = test system: Shigella flexneri CP87
[47] = test system: Clavibacter michiganensis subsp. insidiosus NCPPB 1109
[48] = test system: Escherichia coli NCTC 9001
[49] = test system: Bacillus subtilis NRRL B-237
[50] = test system: Bacillus megaterium QMB 1551
[51] = test system: Brenneria salicis NCPPB 2530
[52] = test system: Agrobacterium tumefaciens DSM 3129
[53] = test system: Salmonella typhimurium ATCC 23565
[54] = test system: Sinorhizobium meliloti ZB314
[55] = test system: Pseudomonas syringae pv. tomato NCPPB 1106

SMILES: CC[C@H](C)[C@H](NC(=O)[C@H](CCCN=C(N)N)NC(=O)[C@H](CCCN=C(N)N)NC(=O)[C@H](CC(C)C)NC(=O)[C@H](Cc1ccccc1)NC(=O)[C@@H]1CCCN1C(=O)[C@H](CCCN=C(N)N)NC(=O)[C@H](CCSC)NC(=O)[C@@H](NC(=O)[C@H](CCCCN)NC(=O)[C@H](CCCCN)NC(=O)[C@H](CS)NC(=O)[C@@H](NC(=O)CNC(=O)[C@@H]1CCCN1C(=O)[C@H](CC(C)C)NC(=O)[C@@H](NC(=O)[C@@H](N)CCCCN)[C@@H](C)CC)C(C)C)[C@@H](C)CC)C(=O)N[C@@H](CO)C(=O)N[C@@H](CCCCN)C(=O)N[C@@H](CC(=O)O)C(=O)N[C@H](C(=O)N[C@@H](CC(C)C)C(=O)N[C@H](C(=O)NCC(=O)N[C@@H](CCCCN)C(=O)N[C@@H](CCCCN)C(N)=O)[C@@H](C)O)[C@@H](C)CC [KILPGVCKKIMRPFLRRISKDILTGKK]
MIC [30]: 8 µM (≈ 25.1 µg/mL)
MIC [14]: 32 µM (≈ 100 µg/mL)
MIC [31]: 8 µM (≈ 25.1 µg/mL)
MIC [32]: 8 µM (≈ 25.1 µg/mL)

SMILES: CC[C@H](C)[C@H](NC(=O)[C@H](CCCCN)NC(=O)[C@H](CCCCN)NC(=O)[C@H](C)NC(=O)[C@H](CC(C)C)NC(=O)[C@H](C)NC(=O)[C@H](C)NC(=O)[C@H](CC(C)C)NC(=O)[C@H](C)NC(=O)[C@@H](N)CCCCN)C(=O)N[C@@H](CC(C)C)C(=O)O [KALAALAKKIL]
MIC [1]: 25 µM (≈ 28.5 µg/mL)
MIC [40]: 25 µM (≈ 28.5 µg/mL)
MIC [41]: 25 µM (≈ 28.5 µg/mL)

SMILES: CC[C@H](C)[C@H](NC(=O)[C@H](Cc1ccc(O)cc1)NC(=O)[C@@H](NC(=O)[C@@H]1CCCN1C(=O)[C@H](CCCN=C(N)N)NC(=O)[C@H](CC(N)=O)NC(=O)[C@H](CC(N)=O)NC(=O)CN)C(C)C)C(=O)N1CCC[C@H]1C(=O)N[C@@H](CCC(N)=O)C(=O)N1CCC[C@H]1C(=O)N[C@@H](CCCN=C(N)N)C(=O)N1CCC[C@H]1C(=O)N1CCC[C@H]1C(=O)N[C@@H](Cc1cnc[nH]1)C(=O)N1CCC[C@H]1C(=O)N[C@@H](CCCN=C(N)N)C(=O)O [GNNRPVYIPQPRPPHPR]
MIC [42]: ≥ 100 µM
MIC [43]: 0.1 µM (≈ 0.2 µg/mL)
MIC [44]: ≥ 100 µM
MIC [45]: ≥ 100 µM
MIC [46]: 0.0501 µM (≈ 0.1 µg/mL)
MIC [47]: 25.1 µM (≈ 50 µg/mL)
MIC [48]: 0.0501 µM (≈ 0.1 µg/mL)
MIC [49]: ≥ 100 µM
MIC [50]: ≥ 75.2 µM
MIC [51]: 0.01 µM (≈ 0.02 µg/mL)
MIC [52]: 0.1 µM (≈ 0.2 µg/mL)
MIC [53]: 0.0501 µM (≈ 0.1 µg/mL)
MIC [54]: 0.0501 µM (≈ 0.1 µg/mL)
MIC [55]: 0.1 µM (≈ 0.2 µg/mL)

The next lines start with the values.

MIC [1]: 3.71 µM (≈ 7.98 µg/mL)
MIC [2]: 0.927 µM (≈ 2 µg/mL)
MIC [3]: 1.9 µM (≈ 4.09 µg/mL)
MIC [4]: 29.7 µM (≈ 63.9 µg/mL)
MIC [5]: 3.7 µM (≈ 7.96 µg/mL)
MIC [6]: 15 µM (≈ 32.3 µg/mL)
MIC [7]: 1.33 µM (≈ 2.86 µg/mL)
MIC [8]: 1.85 µM (≈ 3.99 µg/mL)
MIC [9]: 3.71 µM (≈ 7.98 µg/mL)
MIC [10]: 10.5 µM (≈ 22.7 µg/mL)
MIC [11]: 7.4 µM (≈ 15.9 µg/mL)
MIC [12]: 7.4 µM (≈ 15.9 µg/mL)
MIC [13]: 1.31 µM (≈ 2.82 µg/mL)
MIC [14]: 3.71 µM (≈ 7.98 µg/mL)
MIC [15]: 10.5 µM (≈ 22.6 µg/mL)
MIC [16]: 2.62 µM (≈ 5.64 µg/mL)
MIC [17]: 3.71 µM (≈ 7.98 µg/mL)
MIC [18]: 1.85 µM (≈ 3.99 µg/mL)
MIC [19]: 3.71 µM (≈ 7.98 µg/mL)
MIC [20]: 3.71 µM (≈ 7.98 µg/mL)
MIC [21]: 14.8 µM (≈ 31.9 µg/mL)
MIC [22]: 29.7 µM (≈ 63.9 µg/mL)
MIC [23]: 29.7 µM (≈ 63.9 µg/mL)
MIC [24]: 5.25 µM (≈ 11.3 µg/mL)
MIC [25]: 10.5 µM (≈ 22.7 µg/mL)
MIC [26]: 5.23 µM (≈ 11.3 µg/mL)
MIC [27]: 5.25 µM (≈ 11.3 µg/mL)
MIC [28]: 0.927 µM (≈ 2 µg/mL)
MIC [29]: 1.85 µM (≈ 3.99 µg/mL)
SMILES: CC[C@H](C)[C@@H]1NC(=O)CNC(=O)[C@H](CCCCN)NC(=O)[C@H](Cc2ccc(O)cc2)NC(=O)[C@@H]2CSSC[C@H](NC1=O)C(=O)N[C@@H](Cc1ccc(O)cc1)C(=O)N[C@@H](CCCCN)C(=O)N[C@@H](CCCCN)C(=O)N[C@H](C(=O)N[C@@H](CCCCN)C(N)=O)CSSC[C@H](NC(=O)[C@H](Cc1c[nH]c3ccccc13)NC(=O)[C@@H](N)CCCN=C(N)N)C(=O)N[C@@H](Cc1ccccc1)C(=O)N[C@@H](CCCCN)C(=O)N[C@@H](C(C)C)C(=O)N2 [RWCFKVCYKGICYKKCK]

MIC [30]: > 128 µM
MIC [33]: ≥ 128 µM
MIC [34]: > 128 µM
MIC [35]: ≥ 128 µM
MIC [36]: ≥ 32 µM
MIC [37]: > 128 µM
MIC [38]: 128 µM (≈ 212 µg/mL)
MIC [39]: ≥ 128 µM
SMILES: NCCCC[C@H](NC(=O)[C@H](CCCCN)NC(=O)[C@H](CCCN=C(N)N)NC(=O)[C@H](CCCN=C(N)N)NC(=O)[C@H](Cc1c[nH]c2ccccc12)NC(=O)[C@H](CCC(N)=O)NC(=O)[C@H](Cc1c[nH]c2ccccc12)NC(=O)[C@H](CCCN=C(N)N)NC(=O)[C@H](CCCN=C(N)N)NC(=O)[C@H](CCCCN)NC(=O)[C@@H](N)CCCCN)C(N)=O [KKRRWQWRRKK]

— DBAASP
